Like-named read-outs stand apart in the source and are kept apart here.
What was measured:
[1] = test system: THP-1 cells; assay: Cell viability assay (MTT); type: cell-based; conditions: compound 5 μM alone, 18 h, normalized to DMSO as 100%
Procedure: THP-1 cells were plated in 96-well plates (10^5 cells/well) in 100 μL RPMI supplemented with 10% FBS, 100 U/mL penicillin and 100 μg/ml streptomycin. Compounds were dissolved in DMSO at 1 mM stock solution and were further diluted to 10 μM in the assay medium. 100 μL of this solution was added to the cells to obtain a final compound concentration of 5 μM ([…]). After 18 h incubation, a solution of MTT in assay media (0.5 mg/mL) was added to each well and further incubated for 4 to 6 h, followed by addition of cell lysis buffer (15% w/v SDS and 0.12% v/v 12N HCl aqueous solution), incubated overnight, and then absorbance measured at 570 nm using 650 nm as reference using Tecan Infinite M200 plate reader.

[2] = test system: NF-κB; assay: Measurement of NF-κB activation using THP1-Blue NF-κB cells (SEAP); type: cell-based; conditions: for activity at 5 µM: 20 h, two point normalized, compound 1 as 200%; for NF-κB activity (SAR discussion, in words): evaluated in both the presence and absence of LPS
[3] = compound 5 μM + LPS, LPS (10 ng/mL) as 100%, read-out: NF-κB SEAP Compound + LPS % Activation
[4] = compound 5 μM alone, LPS or DMSO as 100%, read-out: NF-κB SEAP Compound alone % Activation

| SMILES | MTT Compound alone % Viability [1] | activity at 5 µM [2, 3] | activity at 5 µM [2, 4] | NF-κB activity (SAR discussion, in words) [2] |
| --- | --- | --- | --- | --- |
| Cc1ccc(C)c(Cc2csc(NC(=O)c3ccc(S(=O)(=O)N4CCCCC4)cc3)n2)c1 [Compound 12f, N-(4-(2,5-dimethylbenzyl)thiazol-2-yl)-4-(piperidin-1-ylsulfonyl)benzamide] | 97.02% | 108% | 102% | inactive |
| CC(C)(C)c1csc(NC(=O)c2ccc(S(=O)(=O)N3CCCCC3)cc2)n1 [Compound 12k, N-(4-(tert-butyl)thiazol-2-yl)-4-(piperidin-1-ylsulfonyl)benzamide] | 127.74% | 94.1% | 99.5% | None of these molecules had any NF-κB activity |
| Cc1cccc(C)c1-c1csc(NC(=O)c2ccc(S(=O)(=O)N3CCCCC3)cc2)n1 [Compound 12p, N-(4-(2,6-dimethylphenyl)thiazol-2-yl)-4-(piperidin-1-ylsulfonyl)benzamide] | 99.64% | 209% | 185% | retained activity |
| O=C(Nc1nc(-c2cccc3ccccc23)cs1)c1ccc(S(=O)(=O)N2CCCCC2)cc1 [Compound 12q, N-(4-(naphthalen-1-yl)thiazol-2-yl)-4-(piperidin-1-ylsulfonyl)benzamide] | 92.71% | 200% | 198% | equally potent |
| CCc1ccc(C)c(-c2csc(NC(=O)c3ccc(S(=O)(=O)N4CCCCC4)cc3)n2)c1 [Compound 12u, N-(4-(5-ethyl-2-methylphenyl)thiazol-2-yl)-4-(piperidin-1-ylsulfonyl)benzamide] |  | 200% | 216% | resulted in activity |
| Cc1ccc(C)c(-c2cnc(NC(=O)c3ccc(S(=O)(=O)N4CCCCC4)cc3)s2)c1 [Compound 18e, N-(5-(2,5-dimethylphenyl)thiazol-2-yl)-4-(piperidin-1-ylsulfonyl)benzamide] |  | 95.1% | 98.3% | none of these molecules that replaced the thiazole functionality were active |
| Cc1ccc(C)c(-c2nc(NC(=O)c3ccc(S(=O)(=O)N4CCCCC4)cc3)sc2-c2ccccc2)c1 [Compound 18i, N-(4-(2,5-dimethylphenyl)-5-phenylthiazol-2-yl)-4-(piperidin-1-ylsulfonyl)benzamide] |  | 98.4% | 98.3% | completely inactive |
| CCOc1sc(NC(=O)c2ccc(S(=O)(=O)N3CCCCC3)cc2)nc1-c1cc(C)ccc1C [Compound 18l, N-(4-(2,5-dimethylphenyl)-5-ethoxythiazol-2-yl)-4-(piperidin-1-ylsulfonyl)benzamide] |  | 111% | 104% | partial activity |
| C#CCN(C(=O)c1ccc(S(=O)(=O)N2CCCCC2)cc1)c1nc(-c2cc(C)ccc2C)cs1 [Compound 34d, N-(4-(2,5-dimethylphenyl)thiazol-2-yl)-4-(piperidin-1-ylsulfonyl)-N-(prop-2-yn-1-yl)benzamide] |  | 97.7% | 101% | inactive |
| Cc1ccc(C)c(-c2csc(NC(=O)c3ccc(S(=O)(=O)N4CCCCC4)s3)n2)c1 [Compound 46c, N-(4-(2,5-dimethylphenyl)thiazol-2-yl)-5-(piperidin-1-ylsulfonyl)thiophene-2-carboxamide] |  | 97.2% | 106% | none of these modifications at site D or E were tolerated |
| CCCC#Cc1sc(NC(=O)c2ccc(S(=O)(=O)N3CCC(CCC)CC3)cc2)nc1-c1cc(C)ccc1Br [Compound 65, N-(4-(2-bromo-5-methylphenyl)-5-(pent-1-yn-1-yl)thiazol-2-yl)-4-((4-propylpiperidin-1-yl)sulfonyl)benzamide] |  |  |  | very potent and showed better potency than compound 1 |
